Results published in PubChem BioAssay (NCI).
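GI50 marks 50% less growth. TGI marks complete inhibition of growth.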

What was measured:
Assay in all cases: NCI-60 cell line screen, 384-well format
786-0 renal = system: 786-0 renal
A498 renal = system: A498 renal
A549 NSCLC = system: A549 NSCLC
DU-145 prostate = system: DU-145 prostate
HCT-116 colon = system: HCT-116 colon
HCT-15 colon = system: HCT-15 colon
MDA-MB-468 breast = system: MDA-MB-468 breast
NCI-H322M lung = system: NCI-H322M lung
NCI-H522 lung = system: NCI-H522 lung
SK-MEL-2 melanoma = system: SK-MEL-2 melanoma
SK-MEL-5 melanoma = system: SK-MEL-5 melanoma
U251 glioblastoma = system: U251 glioblastoma
UACC-62 melanoma = system: UACC-62 melanoma

**Q.** Which GI50 (786-0 renal) does the source give for `CC(C)(O)C1CCC(Nc2ccc3ncc(-c4cccc(C(F)(F)F)c4)n3n2)CC1` (stereo unspecified) here?
**A.** 0.554 µM

**Q.** And the TGI (786-0 renal)?
**A.** 1.9 µM

**Q.** And the GI50 (A498 renal)?
**A.** 1.16 µM

**Q.** What about the TGI (A498 renal) of the same compound?
**A.** 2.59 µM

**Q.** And the GI50 (A549 NSCLC)?
**A.** 2.1 µM

**Q.** What about the TGI (A549 NSCLC) of the same compound?
**A.** 7.64 µM

**Q.** What about the GI50 (DU-145 prostate) of the same compound?
**A.** 2.83 µM

**Q.** What about the TGI (DU-145 prostate) of the same compound?
**A.** 12.3 µM

**Q.** And the GI50 (HCT-116 colon)?
**A.** 1.7 µM

**Q.** And the TGI (HCT-116 colon)?
**A.** 3.37 µM

**Q.** And the GI50 (HCT-15 colon)?
**A.** 1.12 µM

**Q.** And the TGI (HCT-15 colon)?
**A.** 2.93 µM

**Q.** What about the GI50 (MDA-MB-468 breast) of the same compound?
**A.** 1.09 µM

**Q.** And the TGI (MDA-MB-468 breast)?
**A.** 2.64 µM

**Q.** What about the GI50 (NCI-H322M lung) of the same compound?
**A.** 1.73 µM

**Q.** What about the TGI (NCI-H322M lung) of the same compound?
**A.** 3.93 µM

**Q.** And the GI50 (NCI-H522 lung)?
**A.** 1.03 µM

**Q.** And the TGI (NCI-H522 lung)?
**A.** 2.56 µM

**Q.** And the GI50 (SK-MEL-2 melanoma)?
**A.** 1.32 µM

**Q.** What about the TGI (SK-MEL-2 melanoma) of the same compound?
**A.** 2.62 µM

**Q.** And the GI50 (SK-MEL-5 melanoma)?
**A.** 0.948 µM

**Q.** And the TGI (SK-MEL-5 melanoma)?
**A.** 2.32 µM

**Q.** What about the GI50 (U251 glioblastoma) of the same compound?
**A.** 1.32 µM

**Q.** And the TGI (U251 glioblastoma)?
**A.** 2.83 µM

**Q.** And the GI50 (UACC-62 melanoma)?
**A.** 1.5 µM

**Q.** And the TGI (UACC-62 melanoma)?
**A.** 2.84 µM
